From PubChem BioAssay (NCI) come the findings set out here.

The structures appear in SMILES notation. Where “and” joins values, the source holds several entries; their conditions need not be identical. Equal entries are not always repeated.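 The compound was tested at five concentrations on cells cultured in 96-well plates, with a 48-hour exposure period. Here, GI50 denotes the concentration required for 50% inhibition of growth. TGI: total growth inhibition.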

Among the test systems are CAKI-1 renal; COLO 205 colon; HL-60(TB) leukemia; IGROV1 ovarian; K-562 leukemia; PC-3 prostate; SN12C renal; SW-620 colon; T-47D breast; HS 578T breast.
Assay in all cases: inhibition of tumour cell growth, NCI panel, 48 h

Regarding `O=C1C2=C(C(=O)c3c(O)ccc(O)c31)N(c1cccnc1)Cc1ccccc1O2`, the GI50 was 0.103 µM in the assay on CAKI-1 renal; 0.102 µM in the assay on COLO 205 colon; 0.154 µM in the assay with HL-60(TB) leukemia; 0.289 µM in the assay on IGROV1 ovarian; 0.0752 µM with K-562 leukemia; 0.653 µM with PC-3 prostate. The GI50 with SN12C renal is 0.312 µM; in the assay with SW-620 colon, 0.145 µM; in the assay with T-47D breast it was 0.221 µM. In addition, the TGI in the assay on CAKI-1 renal amounted to 0.421 µM; with COLO 205 colon it was 0.333 µM; in the assay on HL-60(TB) leukemia, 0.484 µM; in the assay with IGROV1 ovarian, 0.96 µM; in the assay with PC-3 prostate, 2.03 µM; in the assay on SN12C renal, 1.02 µM. The TGI in the assay on SW-620 colon came to 0.357 µM; in the assay on T-47D breast it was 0.635 µM.
Regarding `COc1ccc(Nc2[nH]n(C3=Nc4ccccc4Sc4ccccc43)c(=O)c2C#N)cc1`, the GI50 in the assay with CAKI-1 renal is 0.255 µM; in the assay on COLO 205 colon, 1.51 µM; with HS 578T breast it was 1.98 µM; in the assay with IGROV1 ovarian, 2.79 µM; in the assay with PC-3 prostate it was 0.676 µM; in the assay with SN12C renal, 2.36 µM. Besides, the GI50 is 3.18 µM in the assay on SW-620 colon and 0.696 µM in the assay on T-47D breast. Moreover, the TGI was 1.57 µM with CAKI-1 renal; 3.35 µM in the assay on COLO 205 colon; more than 100 µM in the assay on HS 578T breast; more than 100 µM with IGROV1 ovarian; more than 100 µM with PC-3 prostate; more than 100 µM in the assay on SN12C renal. Moreover, the TGI in the assay with SW-620 colon was more than 100 µM; in the assay with T-47D breast, 9.22 µM.
Regarding `CCCCCCCCCCCCCCCCCc1cc(Cl)nc(Cl)n1`, the TGI in the assay with HL-60(TB) leukemia, in the assay on HS 578T breast, with IGROV1 ovarian, in the assay on K-562 leukemia, in the assay on PC-3 prostate and with SN12C renal was more than 100 µM each time. The compound also had a TGI in the assay with SW-620 colon of more than 100 µM.
Consider `Clc1cc2nc[nH]c2cc1Cl`, for which the TGI with CAKI-1 renal, in the assay on COLO 205 colon, with HL-60(TB) leukemia, in the assay on IGROV1 ovarian, with K-562 leukemia and in the assay with SN12C renal was more than 100 µM throughout. For the same compound, the TGI in the assay with SW-620 colon is more than 100 µM.
For `CC(=O)O[C@H]1CC[C@@]2(C)C(=CC[C@@H]3C2CC[C@]2(C)C(=O)NC(=O)CC32)C1` (stereo not given in full), the TGI in the assay on CAKI-1 renal, with COLO 205 colon, in the assay on HL-60(TB) leukemia, in the assay with IGROV1 ovarian, in the assay with K-562 leukemia and in the assay with SN12C renal was more than 100 µM each time. The TGI in the assay with SW-620 colon was more than 100 µM.
In the case of `O=C1C[C@@H]2[C@@H](C=CC23CC3)N1O`, the TGI in the assay on CAKI-1 renal, in the assay with COLO 205 colon, in the assay on HL-60(TB) leukemia, in the assay on IGROV1 ovarian, in the assay on K-562 leukemia and in the assay on SN12C renal was more than 100 µM each time. In the assay with SW-620 colon, this compound showed a TGI of more than 100 µM.
As for `COc1ccc(-c2cc(=O)c3c(OC)c(O)c(OC)cc3o2)cc1`, the TGI with CAKI-1 renal, in the assay with COLO 205 colon, in the assay on HL-60(TB) leukemia, with HS 578T breast, in the assay on IGROV1 ovarian and in the assay with K-562 leukemia was more than 100 µM throughout. In addition, the TGI in the assay with SN12C renal, with SW-620 colon and with T-47D breast was more than 100 µM in each case.
Turning to `CC(=O)OC1COC(n2c(O)c(N=Nc3ccc([N+](=O)[O-])cc3)c3cc(Br)c([N+](=O)[O-])cc32)C(OC(C)=O)C1OC(C)=O` (stereo not given), the TGI is more than 100 µM with CAKI-1 renal; more than 100 µM with COLO 205 colon; more than 100 µM in the assay on HL-60(TB) leukemia; 70.3 µM in the assay on IGROV1 ovarian; more than 100 µM with K-562 leukemia; more than 100 µM in the assay with SN12C renal. In the assay with SW-620 colon, this compound registered a TGI of more than 100 µM.
Regarding `COc1ccc(C(=C(C#N)C#N)c2ccc(OC)cc2)cc1`, the TGI in the assay on CAKI-1 renal, with COLO 205 colon, in the assay on HL-60(TB) leukemia, in the assay with IGROV1 ovarian, in the assay on K-562 leukemia and in the assay with SN12C renal was more than 100 µM each time. Further, the TGI in the assay with SW-620 colon is more than 100 µM.
Consider `CN(C)c1ccc(/C=N/NC(=O)CSc2nc3sc4c(c3c(=O)n2-c2ccccc2)CCCCC4)cc1`, for which the GI50 is 5.07 µM in the assay with CAKI-1 renal; 4.14 µM with COLO 205 colon; more than 100 µM in the assay on HL-60(TB) leukemia; 3.85 µM in the assay with HS 578T breast; 3.08 µM in the assay on IGROV1 ovarian; 4.59 µM in the assay with SN12C renal. Moreover, the figures for the GI50 with SW-620 colon and with T-47D breast were 3.56 µM and more than 100 µM, respectively. Moreover, the TGI was more than 100 µM in the assay with CAKI-1 renal; more than 100 µM in the assay with COLO 205 colon; more than 100 µM with HL-60(TB) leukemia; 40.5 µM in the assay on HS 578T breast; more than 100 µM with IGROV1 ovarian; more than 100 µM in the assay on SN12C renal. In addition, the TGI in the assay on SW-620 colon and with T-47D breast was more than 100 µM each time.
For the compound `CC1OC(OC23C(=O)CC(C)(O)CC2(O)C=CC2=C3C(=O)c3ccc(C4CC(OC5CCC(OC6CC(O)C(O)C(C)O6)C(C)O5)C(O)C(C)O4)c(O)c3C2=O)CCC1O` (stereo not given), the TGI with CAKI-1 renal is 33.5 µM and 34.5 µM; in the assay with COLO 205 colon, 11.8 µM and 8.15 µM; in the assay on HL-60(TB) leukemia, more than 100 µM; in the assay with IGROV1 ovarian it was 30.6 µM and 30.1 µM; with K-562 leukemia, more than 100 µM; in the assay with SN12C renal, 32.5 µM and 30.1 µM. The TGI with SW-620 colon is 15.7 µM and 10.9 µM.
`CN1CCN2c3ccccc3CC(C#N)(C#N)C2C1` (stereo not given): the TGI in the assay with CAKI-1 renal, in the assay with COLO 205 colon, with HL-60(TB) leukemia, in the assay on IGROV1 ovarian, in the assay with K-562 leukemia and in the assay with SN12C renal was more than 100 µM each time. The TGI in the assay on SW-620 colon was more than 100 µM.
As for `OCC(O)C(O)C(O)c1nn[nH]n1` (stereo not given), the TGI in the assay on CAKI-1 renal, in the assay with COLO 205 colon, in the assay on HL-60(TB) leukemia, in the assay on IGROV1 ovarian, in the assay on K-562 leukemia and in the assay on SN12C renal was more than 100 µM each time. In the assay on SW-620 colon, this compound displayed a TGI of more than 100 µM.
In the case of `Nc1nc2ccccc2c2[nH]c3ccccc3c12`, the GI50 with COLO 205 colon was 1.07 µM; with HL-60(TB) leukemia, 1.98 µM; with IGROV1 ovarian, 0.806 µM; in the assay on SN12C renal, 1.24 µM; in the assay with SW-620 colon it was 0.384 µM; in the assay on T-47D breast, 1.21 µM. In addition, the TGI in the assay on COLO 205 colon was determined as 2.33 µM; with HL-60(TB) leukemia it was 5.73 µM; in the assay with IGROV1 ovarian, 2.42 µM; in the assay with SN12C renal, 2.97 µM; in the assay on SW-620 colon it was 1.96 µM; with T-47D breast it was 2.91 µM.
With `CC(C)(C)c1cc(O)c2c(c1O)C(=O)CCC2`, the TGI in the assay on CAKI-1 renal was 82.3 µM; in the assay on COLO 205 colon, more than 100 µM; in the assay on HL-60(TB) leukemia it was 43.9 µM; in the assay on IGROV1 ovarian, more than 100 µM; with K-562 leukemia, more than 100 µM; in the assay with SN12C renal it was more than 100 µM. This compound also displayed a TGI with SW-620 colon of more than 100 µM.
